We go through 18 molecules from patent publication US9266878B2, “Phosphatidylinositol 3-kinase inhibitors” (Gilead Calistoga LLC, priority 2012, dated 2016).

Holding throughout (assay): Enzymatic activity of PI3K isoforms, TR-FRET assay (PIP3 formation)
Holding throughout (format): biochemical
(In TR-FRET formats the signal depends on donor and acceptor labels being close together.)

One assay concerns the target PI3Kα (Homo sapiens (Human), UniProt P42336). As to conditions: bound given in uM. As for the experimental part:
(§1) Enzymatic activity of the class I PI3K isoforms was measured using a time-resolved fluorescence resonance energy transfer (TR-FRET) assay that monitors formation of the product 3,4,5-inositol triphosphate molecule (PIP3), as it competes with fluorescently labeled PIP3 for binding to the GRP-1 pleckstrin homology domain protein. An increase in […] product results in a decrease in TR-FRET signal as the labeled fluorophore is displaced from the GRP-1 protein binding site.
(§2) Class I PI3K isoforms were expressed and purified as heterodimeric recombinant proteins. All assay reagents and buffers for the TR-FRET assay were purchased from Millipore. […] After an assay reaction time of 30 minutes at 25° C., reactions were terminated with a final concentration of 10 mM EDTA, 10 nM labeled-PIP3, and 35 nM Europium labeled GRP-1 detector protein before reading TR-FRET on an Envision plate reader (Ex: 340 nm; Em: 615/665 nm; 100 μs delay and 500 μs read window).
(§3) IC50 are reported in units of nM. These assays generally produced results within 3-fold of the reported mean.

A further assay concerns the target PI3Kδ (Homo sapiens (Human), UniProt O00329). As to conditions: bound given in nM. As for the experimental part: as §1, §2, §3
Another assay has as its target PI3Kβ (Homo sapiens (Human), UniProt P42338). How it is done: as §1
(§4) Class I PI3K isoforms were expressed and purified as heterodimeric recombinant proteins. All assay reagents and buffers for the TR-FRET assay were purchased from Millipore.
(§5) IC50 are reported in units of nM.

A further assay deals with PI3Kγ (Homo sapiens (Human), UniProt P48736). As for the experimental part: as §1, §4, §5
Sequence of PI3Kγ (P48736 whole entry): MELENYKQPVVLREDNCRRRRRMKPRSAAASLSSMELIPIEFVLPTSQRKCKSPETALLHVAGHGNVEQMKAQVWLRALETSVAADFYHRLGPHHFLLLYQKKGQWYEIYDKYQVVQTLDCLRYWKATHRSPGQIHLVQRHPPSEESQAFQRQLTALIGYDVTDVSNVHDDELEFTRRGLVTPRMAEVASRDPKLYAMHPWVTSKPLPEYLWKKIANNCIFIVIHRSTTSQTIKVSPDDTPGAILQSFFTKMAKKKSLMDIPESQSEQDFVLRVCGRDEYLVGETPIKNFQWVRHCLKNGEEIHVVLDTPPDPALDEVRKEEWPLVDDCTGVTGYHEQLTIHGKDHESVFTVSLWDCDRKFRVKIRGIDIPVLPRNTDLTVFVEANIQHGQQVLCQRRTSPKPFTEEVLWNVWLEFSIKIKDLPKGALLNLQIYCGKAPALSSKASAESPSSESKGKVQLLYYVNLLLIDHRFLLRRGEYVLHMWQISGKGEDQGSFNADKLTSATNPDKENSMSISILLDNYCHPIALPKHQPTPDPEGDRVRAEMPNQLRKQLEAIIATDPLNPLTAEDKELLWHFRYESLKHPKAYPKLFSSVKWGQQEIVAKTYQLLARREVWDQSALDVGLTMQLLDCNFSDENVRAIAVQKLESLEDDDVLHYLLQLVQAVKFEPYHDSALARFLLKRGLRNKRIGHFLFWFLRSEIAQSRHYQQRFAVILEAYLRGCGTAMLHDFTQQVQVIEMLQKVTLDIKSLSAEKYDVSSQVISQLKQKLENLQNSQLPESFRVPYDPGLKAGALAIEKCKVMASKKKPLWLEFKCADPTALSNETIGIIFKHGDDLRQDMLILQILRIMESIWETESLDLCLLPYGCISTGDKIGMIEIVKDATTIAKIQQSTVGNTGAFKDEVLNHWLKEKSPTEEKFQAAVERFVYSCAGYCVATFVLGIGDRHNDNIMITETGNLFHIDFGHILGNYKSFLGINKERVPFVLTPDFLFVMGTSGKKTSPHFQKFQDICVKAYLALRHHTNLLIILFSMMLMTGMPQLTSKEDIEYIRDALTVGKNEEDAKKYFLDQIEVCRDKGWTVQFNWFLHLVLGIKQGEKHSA
Sequence of PI3Kγ (Q8WYR1 whole entry partner): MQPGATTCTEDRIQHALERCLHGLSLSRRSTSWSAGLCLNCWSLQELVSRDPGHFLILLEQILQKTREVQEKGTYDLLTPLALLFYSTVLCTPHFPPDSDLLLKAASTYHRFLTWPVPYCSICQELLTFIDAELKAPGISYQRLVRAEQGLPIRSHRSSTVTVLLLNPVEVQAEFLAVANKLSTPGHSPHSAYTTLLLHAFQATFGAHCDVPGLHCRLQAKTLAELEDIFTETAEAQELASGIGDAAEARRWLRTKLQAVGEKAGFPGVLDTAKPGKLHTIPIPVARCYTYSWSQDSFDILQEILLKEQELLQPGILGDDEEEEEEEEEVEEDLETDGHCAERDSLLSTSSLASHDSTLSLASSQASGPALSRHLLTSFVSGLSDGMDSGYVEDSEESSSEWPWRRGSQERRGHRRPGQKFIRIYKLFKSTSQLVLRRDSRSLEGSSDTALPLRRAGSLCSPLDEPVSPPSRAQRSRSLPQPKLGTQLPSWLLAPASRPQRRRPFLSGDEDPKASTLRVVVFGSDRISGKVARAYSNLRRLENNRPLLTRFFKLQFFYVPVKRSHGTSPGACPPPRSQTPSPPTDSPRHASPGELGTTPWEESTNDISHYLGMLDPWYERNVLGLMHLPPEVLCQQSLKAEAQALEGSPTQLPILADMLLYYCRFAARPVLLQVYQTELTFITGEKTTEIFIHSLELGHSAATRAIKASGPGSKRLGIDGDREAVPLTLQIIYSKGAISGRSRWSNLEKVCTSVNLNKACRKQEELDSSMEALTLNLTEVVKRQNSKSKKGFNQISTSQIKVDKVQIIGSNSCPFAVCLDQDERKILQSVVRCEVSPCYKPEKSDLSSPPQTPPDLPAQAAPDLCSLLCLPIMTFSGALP

The structures appear in SMILES notation. A value given as a limit tells only on which side of the number the result lay.

By IC50 is commonly meant the concentration that gives 50% inhibition. A higher IC50 goes with weaker potency.

Sequence of PI3Kβ (P42338 whole entry, canonical isoform): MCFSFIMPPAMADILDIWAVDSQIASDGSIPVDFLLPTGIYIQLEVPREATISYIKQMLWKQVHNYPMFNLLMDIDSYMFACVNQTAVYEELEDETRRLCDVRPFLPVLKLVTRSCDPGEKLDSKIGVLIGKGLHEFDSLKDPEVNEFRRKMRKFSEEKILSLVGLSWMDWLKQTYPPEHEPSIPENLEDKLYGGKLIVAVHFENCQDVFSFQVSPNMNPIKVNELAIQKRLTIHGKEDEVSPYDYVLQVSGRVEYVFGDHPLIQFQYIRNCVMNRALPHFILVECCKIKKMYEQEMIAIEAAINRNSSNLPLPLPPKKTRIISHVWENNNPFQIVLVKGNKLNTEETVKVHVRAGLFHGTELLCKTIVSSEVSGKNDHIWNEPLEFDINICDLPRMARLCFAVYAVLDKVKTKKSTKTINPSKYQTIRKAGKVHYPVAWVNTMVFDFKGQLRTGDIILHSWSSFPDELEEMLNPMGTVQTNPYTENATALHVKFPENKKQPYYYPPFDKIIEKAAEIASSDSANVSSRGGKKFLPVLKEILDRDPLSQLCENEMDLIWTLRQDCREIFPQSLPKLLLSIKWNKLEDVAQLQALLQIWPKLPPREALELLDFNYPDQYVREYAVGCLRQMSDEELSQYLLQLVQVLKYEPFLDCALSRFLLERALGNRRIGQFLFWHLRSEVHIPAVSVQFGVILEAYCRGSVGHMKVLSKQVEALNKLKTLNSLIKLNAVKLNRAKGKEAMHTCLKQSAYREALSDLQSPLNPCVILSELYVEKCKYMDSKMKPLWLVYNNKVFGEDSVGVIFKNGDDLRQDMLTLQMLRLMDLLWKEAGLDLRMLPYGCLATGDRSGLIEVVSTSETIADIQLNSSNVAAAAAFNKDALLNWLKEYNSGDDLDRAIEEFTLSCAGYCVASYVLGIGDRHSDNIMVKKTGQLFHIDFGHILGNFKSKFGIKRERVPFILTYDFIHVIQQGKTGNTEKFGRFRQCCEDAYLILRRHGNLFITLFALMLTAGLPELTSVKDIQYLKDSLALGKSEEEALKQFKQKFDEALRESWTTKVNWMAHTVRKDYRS
Sequence of PI3Kβ (P27986 whole entry partner, canonical isoform): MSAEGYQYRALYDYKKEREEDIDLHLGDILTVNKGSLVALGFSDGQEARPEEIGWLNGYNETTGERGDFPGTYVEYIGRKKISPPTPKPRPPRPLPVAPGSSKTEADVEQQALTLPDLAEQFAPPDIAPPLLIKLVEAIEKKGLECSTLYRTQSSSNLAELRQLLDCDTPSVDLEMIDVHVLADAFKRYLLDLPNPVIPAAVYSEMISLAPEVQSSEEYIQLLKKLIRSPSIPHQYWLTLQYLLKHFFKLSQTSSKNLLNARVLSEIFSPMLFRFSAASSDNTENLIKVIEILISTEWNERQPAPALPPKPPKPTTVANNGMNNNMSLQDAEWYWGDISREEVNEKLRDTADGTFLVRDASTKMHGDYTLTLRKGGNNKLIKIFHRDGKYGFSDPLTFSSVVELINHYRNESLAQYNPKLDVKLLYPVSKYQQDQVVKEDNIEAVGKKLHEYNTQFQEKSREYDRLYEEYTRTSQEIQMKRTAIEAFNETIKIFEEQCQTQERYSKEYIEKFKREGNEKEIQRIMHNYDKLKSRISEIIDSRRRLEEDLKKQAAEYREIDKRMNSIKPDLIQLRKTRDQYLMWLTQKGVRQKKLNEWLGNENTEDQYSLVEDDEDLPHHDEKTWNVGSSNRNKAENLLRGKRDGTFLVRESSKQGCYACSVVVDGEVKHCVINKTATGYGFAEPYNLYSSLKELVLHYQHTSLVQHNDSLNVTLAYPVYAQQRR
Sequence of PI3Kδ (O00329 whole entry): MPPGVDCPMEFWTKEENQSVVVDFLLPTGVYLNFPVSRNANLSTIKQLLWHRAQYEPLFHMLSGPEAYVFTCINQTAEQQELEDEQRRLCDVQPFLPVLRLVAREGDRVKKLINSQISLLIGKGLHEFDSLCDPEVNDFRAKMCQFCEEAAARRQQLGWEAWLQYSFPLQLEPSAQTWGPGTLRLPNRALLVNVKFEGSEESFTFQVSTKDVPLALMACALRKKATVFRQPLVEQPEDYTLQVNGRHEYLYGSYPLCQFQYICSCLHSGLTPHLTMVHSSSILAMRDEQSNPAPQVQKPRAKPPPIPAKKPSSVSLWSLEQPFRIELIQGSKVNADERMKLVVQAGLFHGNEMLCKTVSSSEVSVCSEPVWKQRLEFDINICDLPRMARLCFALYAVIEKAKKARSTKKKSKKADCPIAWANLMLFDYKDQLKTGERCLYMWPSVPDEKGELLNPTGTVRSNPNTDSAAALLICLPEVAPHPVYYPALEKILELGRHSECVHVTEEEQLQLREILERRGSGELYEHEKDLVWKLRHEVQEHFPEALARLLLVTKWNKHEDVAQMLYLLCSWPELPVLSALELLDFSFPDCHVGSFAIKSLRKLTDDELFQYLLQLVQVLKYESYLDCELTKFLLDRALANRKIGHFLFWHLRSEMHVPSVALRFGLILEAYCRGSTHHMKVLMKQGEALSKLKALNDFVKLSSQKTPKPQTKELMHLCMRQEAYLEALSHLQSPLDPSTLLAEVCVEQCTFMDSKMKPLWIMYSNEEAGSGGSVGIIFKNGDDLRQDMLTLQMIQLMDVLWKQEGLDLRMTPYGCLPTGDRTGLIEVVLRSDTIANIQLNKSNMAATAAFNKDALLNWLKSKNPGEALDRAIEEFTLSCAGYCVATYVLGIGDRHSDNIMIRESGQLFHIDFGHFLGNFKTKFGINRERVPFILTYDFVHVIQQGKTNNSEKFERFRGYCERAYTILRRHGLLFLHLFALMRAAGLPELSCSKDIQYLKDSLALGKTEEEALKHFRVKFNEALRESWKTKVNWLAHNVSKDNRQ
Sequence of PI3Kδ (P27986 whole entry partner): as the sequence (P27986 whole entry partner, canonical isoform) above

With `C[C@H](Nc1ncnc(N)c1C#Cc1ccc(OC(F)(F)F)cc1)c1nc2cccc(Cl)c2c(=O)n1-c1ccccc1` [Compound 27a, (S)-2-(1-(6-amino-5-((4-(trifluoromethoxy)phenyl)ethynyl)pyrimidin-4-ylamino)ethyl)-5-chloro-3-phenylquinazolin-4(3H)-one], the results for the half-maximal inhibitory concentration (IC50) at PI3Kα, on PI3Kδ and on PI3Kβ (bound given in uM) were above 1 µM, below 100 nM and above 1 µM, respectively.

As to `C[C@H](Nc1ncnc(N)c1C#Cc1cccnc1)c1nc2cccc(Cl)c2c(=O)n1-c1cc(F)cc(F)c1` [Compound 43a, (S)-2-(1-(6-amino-5-(pyridin-3-ylethynyl)pyrimidin-4-ylamino)ethyl)-5-chloro-3-(3,5-difluorophenyl)quinazolin-4(3H)-one], the values for the IC50 against PI3Kα, at PI3Kδ and at PI3Kβ (bound given in uM) were above 1 µM, below 100 nM and above 1 µM, respectively.

Regarding `C[C@H](Nc1ncnc(N)c1C#Cc1ccccn1)c1nc2cccc(Cl)c2c(=O)n1-c1ccccc1` [Compound 50a, (S)-2-(1-(6-amino-5-(pyridin-2-ylethynyl)pyrimidin-4-ylamino)ethyl)-5-chloro-3-phenylquinazolin-4(3H)-one], the IC50 against PI3Kδ is below 100 nM; against PI3Kβ (bound given in nM) it was below 0.1 µM.

As to `C[C@H](Nc1ncnc(N)c1C#Cc1cc(C(N)=O)ccn1)c1nc2cccc(Cl)c2c(=O)n1-c1ccccc1` [Compound 156a, (S)-2-((4-amino-6-((1-(5-chloro-4-oxo-3-phenyl-3,4-dihydroquinazolin-2-yl)ethyl)amino)pyrimidin-5-yl)ethynyl)isonicotinamide], the figures for the IC50 against PI3Kδ and against PI3Kβ (bound given in nM) were below 100 nM and below 0.1 µM, respectively.

As for `Cc1ccnc(C#Cc2c(N)ncnc2N[C@@H](C)c2nc3cccc(Cl)c3c(=O)n2-c2ccccc2)c1` [Compound 147a, (S)-2-(1-((6-amino-5-((4-methylpyridin-2-yl)ethynyl)pyrimidin-4-yl)amino)ethyl)-5-chloro-3-phenylquinazolin-4(3H)-one], the IC50 is below 100 nM on PI3Kδ and below 0.1 µM against PI3Kβ (bound given in nM).

In the case of `Cc1ccc(F)c2nc([C@H](C)Nc3ncnc(N)c3C#Cc3cnccn3)n(-c3ccccc3)c(=O)c12` [Compound 75a, (S)-2-(1-((6-amino-5-(pyrazin-2-ylethynyl)pyrimidin-4-yl)amino)ethyl)-8-fluoro-5-methyl-3-phenylquinazolin-4(3H)-one], the figures for the 50% inhibitory concentration (IC50) against PI3Kδ and at PI3Kβ (bound given in nM) were below 100 nM and below 0.1 µM, respectively.

For `C[C@H](Nc1ncnc(N)c1C#Cc1ccc(C(F)(F)F)cn1)c1nc2cccc(Cl)c2c(=O)n1-c1cc(F)cc(F)c1` [Compound 134a, (S)-2-(1-((6-amino-5-((5-(trifluoromethyl)pyridin-2-yl)ethynyl)pyrimidin-4-yl)amino)ethyl)-5-chloro-3-(3,5-difluorophenyl)quinazolin-4(3H)-one], the IC50 against PI3Kα and against PI3Kβ (bound given in uM) was above 1 µM throughout.

With `C[C@H](Nc1ncnc(N)c1C#Cc1ncccn1)c1nc2cccc(F)c2c(=O)n1-c1ccccc1` [Compound 109a, 2-(1-((6-amino-5-(pyrimidin-2-ylethynyl)pyrimidin-4-yl)amino)ethyl)-5-fluoro-3-phenylquinazolin-4(3H)-one], the IC50 against PI3Kα was above 1 µM; on PI3Kδ it was below 100 nM; at PI3Kγ (bound given in uM) it was above 1 µM.

Take `C[C@H](Nc1ncnc(N)c1C#Cc1cnccn1)c1nc2cccc(F)c2c(=O)n1-c1cccnc1` [Compound 115a, (S)-2-(1-((6-amino-5-(pyrazin-2-ylethynyl)pyrimidin-4-yl)amino)ethyl)-5-fluoro-3-(pyridin-3-yl)quinazolin-4(3H)-one]: the 50% inhibitory concentration (IC50) at PI3Kα was above 1 µM; at PI3Kδ, below 100 nM; against PI3Kγ (bound given in uM) it was above 1 µM.

For `Cc1nc(C#Cc2c(N)ncnc2N[C@@H](C)c2nc3cccc(Cl)c3c(=O)n2-c2ccccc2)ccc1F` [Compound 140a, (S)-2-(1-((6-amino-5-((5-fluoro-6-methylpyridin-2-yl)ethynyl)pyrimidin-4-yl)amino)ethyl)-5-chloro-3-phenylquinazolin-4(3H)-one], the 50% inhibitory concentration (IC50) against PI3Kα is above 1 µM; at PI3Kδ, below 100 nM; on PI3Kγ (bound given in uM), above 1 µM.

As to `C[C@H](Nc1ncnc(N)c1C#Cc1cnccn1)c1nc2cccc(Cl)c2c(=O)n1-c1cccnc1` [Compound 118a, (S)-2-(1-((6-amino-5-(pyrazin-2-ylethynyl)pyrimidin-4-yl)amino)ethyl)-5-chloro-3-(pyridin-3-yl)quinazolin-4(3H)-one], the values for the IC50 against PI3Kα, against PI3Kδ and against PI3Kγ (bound given in uM) were above 1 µM, below 100 nM and above 1 µM, respectively.

For `C[C@H](Nc1ncnc(N)c1C#CC1CCCC1)c1nc2cccc(Cl)c2c(=O)n1-c1ccccc1` [Compound 144a, (S)-2-(1-((6-amino-5-(cyclopentylethynyl)pyrimidin-4-yl)amino)ethyl)-5-chloro-3-phenylquinazolin-4(3H)-one], the IC50 against PI3Kα was above 1 µM; against PI3Kδ it was below 100 nM; on PI3Kγ (bound given in uM), above 1 µM.

On to `C[C@H](Nc1ncnc(N)c1C#Cc1cccc(N)n1)c1nc2cccc(Cl)c2c(=O)n1-c1cc(F)cc(F)c1` [Compound 15a, (S)-2-(1-(6-amino-5-((6-aminopyridin-2-yl)ethynyl)pyrimidin-4-ylamino)ethyl)-5-chloro-3-(3,5-difluorophenyl)quinazolin-4(3H)-one], for which the IC50 is below 100 nM against PI3Kδ and below 0.1 µM against PI3Kβ (bound given in nM).

As for `Cc1cccc2nc([C@H](C)Nc3ncnc(N)c3C#Cc3ccccn3)n(-c3ccccc3)c(=O)c12` [Compound 30a, (S)-2-(1-(6-amino-5-(pyridin-2-ylethynyl)pyrimidin-4-ylamino)ethyl)-5-methyl-3-phenylquinazolin-4(3H)-one], the IC50 against PI3Kδ is below 100 nM; at PI3Kβ (bound given in nM) it was below 0.1 µM.

On to `Cc1cccc2nc([C@H](C)Nc3ncnc(N)c3C#Cc3cnccn3)n(-c3ccccc3)c(=O)c12` [Compound 98a, (S)-2-(1-((6-amino-5-(pyrazin-2-ylethynyl)pyrimidin-4-yl)amino)ethyl)-5-methyl-3-phenylquinazolin-4(3H)-one], for which the figures for the IC50 against PI3Kδ and against PI3Kβ (bound given in nM) were below 100 nM and below 0.1 µM, respectively.

On to `C[C@H](Nc1ncnc(N)c1C#Cc1ccc(C(N)=O)cn1)c1nc2cccc(Cl)c2c(=O)n1-c1ccccc1` [Compound 135a, (S)-6-((4-amino-6-((1-(5-chloro-4-oxo-3-phenyl-3,4-dihydroquinazolin-2-yl)ethyl)amino)pyrimidin-5-yl)ethynyl)nicotinamide], for which the values for the IC50 on PI3Kα, on PI3Kδ and against PI3Kγ (bound given in nM) were above 1 µM, below 100 nM and below 0.1 µM, respectively.

In the case of `C[C@H](Nc1ncnc(N)c1C#Cc1cnccn1)c1nc2cccc(F)c2c(=O)n1-c1ccccc1` [Compound 86a, (S)-2-(1-((6-amino-5-(pyrazin-2-ylethynyl)pyrimidin-4-yl)amino)ethyl)-5-fluoro-3-phenylquinazolin-4(3H)-one], the IC50 is above 1 µM on PI3Kα, below 100 nM at PI3Kδ and above 1 µM on PI3Kγ (bound given in uM).

Consider `C[C@H](Nc1ncnc(N)c1C#Cc1ccccc1)c1nc2cccc(S(C)(=O)=O)c2c(=O)n1-c1ccccc1` [Compound 112a, (S)-2-(1-((6-amino-5-(phenylethynyl)pyrimidin-4-yl)amino)ethyl)-5-(methylsulfonyl)-3-phenylquinazolin-4(3H)-one], for which the IC50 on PI3Kδ is below 100 nM; against PI3Kβ (bound given in uM), above 1 µM.
